The results in this text go back to patent US20260193222A1, “COMPOUND AND USE THEREOF IN TREATMENT OF TREG-RELATED DISEASES” (BENETHERA (SHAOXING) BIOTECHNOLOGY CO., LTD., priority 2022, published 2026).

Data set [1] is described as follows: O-1602 release of O-1602 derivatives under different pH conditions (HPLC area percentage). It is filed as physicochemical. As to conditions: for completeness of O-1602 release (in words): partial release with degradation into other impurities. As to the method: Example 1: Experimental on O-1602 Releases of O-1602 Derivatives Under Different pH Conditions
• Chromatographic column: shimnex CS C18 5 μm, 4.6*250 mm • Mobile phase A: 0.1% phosphoric acid in water; mobile phase B: acetonitrile (see Table 1)
Buffer solution (pH 1.6): 32.4 ml of 0.2 mol/L hydrochloric acid was accurately measured, diluted with water to 200 ml, and shaken well.
Phosphate buffer (pH 5.0): a certain amount of 0.2 mol/L sodium dihydrogen phosphate solution was taken and the pH value was adjusted by using 0.2 mol/L sodium hydroxide solution to 5.0.
Phosphate buffer (pH 6.8): a certain amount of 0.2 mol/L sodium dihydrogen phosphate solution was taken and the pH value was adjusted by using 0.2 mol/L sodium hydroxide solution to 6.8.
Phosphate buffer (pH 7.2): a certain amount of 0.2 mol/L sodium dihydrogen phosphate solution was taken and the pH value was adjusted by using 0.2 mol/L sodium hydroxide solution to 7.2.
Phosphate buffer (pH 8.0): a certain amount of 0.2 mol/L sodium dihydrogen phosphate solution was taken and the pH value was adjusted by using 0.2 mol/L sodium hydroxide solution to 8.0.
About 1 mg of O-1602 derivative was placed in a 2 mL centrifuge tube and dissolved by adding 1 mL of acetonitrile. Then 1 mL of buffer solution was added and shaken well. The obtained solution was incubated at 37° C., and sampled for determination respectively after for 2 hours and 4 hours. (The releases of O-1602 were respectively investigated at pH 1.6, pH 5.0, pH 6.8, pH 7.2, and pH 8.0)
Calculations: the content of O-1602 was calculated by area percentage.

In data set [2] the test system is CS7BL/6 mice with TNBS-induced acute enteritis. The experiment in a line: 2,4,6-trinitrobenzene sulfonic acid (TNBS)-induced acute enteritis in mice. Type of data set: in vivo. As to conditions: for weight loss in model animals / disease activity index (DAI) / damage to colon tissue / length of colon: 1 mg/kg, once daily gavage; for weight loss in model animals: day 0 to day 4, FIG. 2; for disease activity index (DAI): day 0 to day 4, FIG. 3; for damage to colon tissue: dissection on day 5, FIG. 5; for length of colon: dissection on day 5, FIGS. 4 and 5; for efficacy compared with tofacitinib: derivative 1 mg/kg versus positive control tofacitinib. On the procedure:
CS7BL/6 mice, male, and female, 6 to 10 weeks old were used. On day-7 of the experiment, the experimental animals were weighed, and the mice were randomly divided into cages according to their body weights. The animals were allowed to adapt to the environment of the animal room. The animal room was maintained at a constant temperature (23° C.±3° C.) and constant humidity (50% relative humidity). Animals are fed standard laboratory food and have free access to drinking water. On day 0, mice were induced for TNBS colitis by intrarectal injection. The dosage of TNBS was 125 mg/kg. The solvent was 30% alcohol. Each mouse received a volume of 100 μl. After the rectal injection, the mice were inverted for 1 minute to prevent leakage of the drug solution.
The solid O-1602 derivative was dissolved in DMSO at a concentration of 2 mg/ml. The above solution was diluted to 0.1 mg/ml using PBS. TNBS enteritis mice received once daily gavage in a volume of 200 μl and were dosed daily at 11:00 a. m. The dosage of the O-1602 derivative was 1 mg/kg. The treatment schedule for the O-1602 derivative was from day 0 to day 4 of the TNBS. The mice in the control group were administered with an equal volume of solvent by gavage. At the same time, the anti-colitis drug JAK inhibitor tofacitinib was used as a positive control. The experimental results of O-1602 derivatives in this model experiment were compared. The O-1602 derivatives were dissolved in the above-mentioned way; the concentration was 1.5 mg/mL; the volume of intragastric administration was 200 μL; and the dosage was 15 mg/kg.
Mice were observed daily for body weight and anal bleeding, and the daily disease activity index (DAI) was calculated and recorded.
The experiment was terminated on day 5 of TNBS. Mice were euthanized by cervical amputation under isoflurane anesthesia. The mice were dissected and the whole colon was obtained. The length of the colon was measured and photographed.

[3] abbreviates: pH 1.6~8.0, 37° C., 2 hours and 4 hours.

On to `C=C(C)[C@@H]1CCC(C)=C[C@H]1c1c(C)cc(OC(=O)CN(C)C)cc1O` [Compound 13], for which the “O-1602 release (in words)” value in data set [1] (acidic buffer solution (pH 1.6), 37° C., 4 hours) is recorded as “trace amount”. In data set [1] (setting [3]), the “release amount of O-1602 (in words)” value is listed as “small amount”.

Turning to `C=C(C)[C@@H]1CCC(C)=C[C@H]1c1c(C)cc(OC(=O)N(C)C)cc1OC(=O)N(C)C` [Compound 8], in data set [1] (setting [3]), the “release amount of O-1602 (in words)” value is on record as “no O-1602 was released” and the “stability (in words)” value was “good stability”.

With `C=C(C)[C@@H]1CCC(C)=C[C@H]1c1c(C)cc(OC(C)=O)cc1OC(C)=O` [Compound 2], the “release amount of O-1602 (in words)” value in data set [1] (setting [3]) is recorded as “no O-1602 was released”.

Regarding `C=C(C)[C@@H]1CCC(C)=C[C@H]1c1c(C)cc(OC(=O)NCCCCN)cc1O` [Compound 6], the “release amount of O-1602 (in words)” value in data set [1] (setting [3]) is “small amount”. Moreover, in data set [2], the “weight loss in model animals” value is reported as “significantly alleviated”, the “disease activity index (DAI)” value was “significantly alleviated”, the “damage to colon tissue” value is given as “reduced” and the length of colon result is reported as “increased”. Besides, the “efficacy compared with tofacitinib” value in data set [2] was “superior efficacy”.

Turning to `C=C(C)[C@@H]1CCC(C)=C[C@H]1c1c(C)cc(OC(=O)OCCN(CC)CC)cc1OC(=O)OCCN(CC)CC` [Compound 1], the Principal component % is 97.185% in data set [1] (0 h); 96.906% in data set [1] (Buffer (pH 1.6), 37° C., 2 h); 94.115% in data set [1] (Buffer (pH 1.6), 37° C., 4 h); 78.030% in data set [1] (Buffer (pH 5.0), 37° C., 2 h); 24.651% in data set [1] (Buffer (pH 5.0), 37° C., 4 h). Moreover, the O-1602% is recorded as 0.457% in data set [1] (Buffer (pH 5.0), 37° C., 4 h); 9.801% in data set [1] (Buffer (pH 6.8), 37° C., 2 h); 20.813% in data set [1] (Buffer (pH 6.8), 37° C., 4 h); 6.354% in data set [1] (Buffer (pH 7.2), 37° C., 2 h); 20.172% in data set [1] (Buffer (pH 7.2), 37° C., 4 h); 11.455% in data set [1] (Buffer (pH 8.0), 37° C., 2 h). For the same compound, in data set [1] (Buffer (pH 8.0), 37° C., 4 h), the O-1602% is given as 33.963%. Further, the “release amount of O-1602 (in words)” value in data set [1] (setting [3]) is on record as “relatively high”. The “completeness of O-1602 release (in words)” value in data set [1] (pH 1.6~8.0, 37° C.) is listed as “only partially released”. For the same compound, in data set [2], the “weight loss in model animals” value was “significantly alleviated”.

As to `C=C(C)[C@@H]1CCC(C)=C[C@H]1c1c(C)cc(OC(=O)NC(C(=O)O)C(C)C)cc1OC(=O)NC(C(=O)O)C(C)C` (stereo partly shown) [Compound 3], in data set [2], the “weight loss in model animals” value was “significantly alleviated”, the “disease activity index (DAI)” value was “significantly alleviated”, the “damage to colon tissue” value is listed as “reduced” and the length of colon result is “increased”. Besides, the “efficacy compared with tofacitinib” value in data set [2] was “superior efficacy”.

Regarding `C=C(C)[C@@H]1CCC(C)=C[C@H]1c1c(C)cc(OC(=O)NCCN2CCN(C)CC2)cc1OC(=O)NCCN1CCN(C)CC1` [Compound 11], the “release amount of O-1602 (in words)” value in data set [1] (setting [3]) was “small amount”. In data set [2], the “disease activity index (DAI)” value is “significantly alleviated”, the “damage to colon tissue” value was “reduced”, the length of colon entry is on record as “increased” and the “efficacy compared with tofacitinib” value was “superior efficacy”.

With `C=C(C)[C@@H]1CCC(C)=C[C@H]1c1c(C)cc(OC(=O)C(N)C(C)C)cc1OC(=O)C(N)C(C)C` (stereo partly shown) [Compound 7], the Principal component % in data set [1] (0 h) turned out to be 87.691%; in data set [1] (Buffer (pH 1.6), 37° C., 2 h), 79.094%; in data set [1] (Buffer (pH 1.6), 37° C., 4 h), 81.424%; in data set [1] (Buffer (pH 5.0), 37° C., 2 h) it was 26.693%; in data set [1] (Buffer (pH 5.0), 37° C., 4 h), 8.307%; in data set [1] (Buffer (pH 6.8), 37° C., 2 h), 3.401%. This compound also had a Principal component % in data set [1] (Buffer (pH 6.8), 37° C., 4 h) of 1.551%. Besides, the O-1602% in data set [1] (Buffer (pH 5.0), 37° C., 2 h) is reported as 1.088%; in data set [1] (Buffer (pH 5.0), 37° C., 4 h), 3.800%; in data set [1] (Buffer (pH 6.8), 37° C., 2 h), 1.972%; in data set [1] (Buffer (pH 6.8), 37° C., 4 h), 3.518%; in data set [1] (Buffer (pH 7.2), 37° C., 2 h) it was 29.354%; in data set [1] (Buffer (pH 7.2), 37° C., 4 h) it was 19.343%. For the same compound, the O-1602% in data set [1] (Buffer (pH 8.0), 37° C., 2 h) is listed as 11.933%; in data set [1] (Buffer (pH 8.0), 37° C., 4 h), 43.976%. Moreover, in data set [1] (setting [3]), the “release amount of O-1602 (in words)” value is on record as “relatively high”. Further, the “completeness of O-1602 release (in words)” value in data set [1] (pH 1.6~8.0, 37° C.) is “only partially released”. The “weight loss in model animals” value in data set [2] is “significantly alleviated”. In addition, the “disease activity index (DAI)” value in data set [2] is listed as “significantly alleviated”. In addition, the “damage to colon tissue” value in data set [2] is recorded as “reduced”. In addition, in data set [2], the length of colon result was “increased”. Besides, in data set [2], the “efficacy compared with tofacitinib” value was “superior efficacy”.
